Measured values from patent US20200371122A1, “BIOMARKER FOR SENESCENT CELLS” (Buck Institute for Research on Aging, priority 2017, published 2020).

Experiments:
Type in all cases: cell-based, human
IMR-90 fibroblasts = experiment: Induction of senescence in non-senescent cells by prostaglandins or 5-LOX pathway products (EdU, SA-B-gal, p21, immunoblot)
Procedure: RNA was extracted from cells or tissues using commercially available kits (Isolate II—Bioline for cells; Direct-zol—Zymo for tissues) according to the manufacturer's instructions. cDNA synthesis was performed using a High Capacity cDNA Reverse Transcription Kit (Thermo Fisher) according to the manufacturer's instructions. Quantitative PCR was performed on a LightCycler 480 II (Roche) using primers and probes designed for the Universal Probe Library. Primers and probes used for human transcripts were ACTB: 5′-CCAACCGCGAGAAGATGA (SEQ ID NO:1), 5′-TCCATCACGATGCCAGTG (SEQ ID NO:2), Probe #64; TUBA: 5′-cttcgtctccgccatcag (SEQ ID NO:3), 5′-ttgccaatctggacacca (SEQ ID NO:4), Probe #58; ALOX5: 5′-[…] (SEQ ID NO:5), 5′-[…] (SEQ ID NO:6), Probe #64; ALOX5AP: 5′-ggtctgcggggctacttt (SEQ ID NO:7), 5′-[…] (SEQ ID NO:8), Probe #18; ALOX12: 5′-[…] (SEQ ID NO:9), 5′-agccaggtcgtcaggag (SEQ ID NO:10), Probe #32; ALOX15: 5′-[…] (SEQ ID NO:11), 5′-[…] (SEQ ID NO:12), Probe #76; ALOX15B: 5′-[…] (SEQ ID NO:13), 5′-actgggaggcgaagaagg (SEQ ID NO:14), Probe #51; AKR1C1: 5′-catgcctgtcctgggattt (SEQ ID NO:15), 5′-[…] (SEQ ID NO:16), Probe #49; AKR1C2: 5′-ctatgcgcctgcagaggt (SEQ ID NO:17), 5′-[…] (SEQ ID NO:18), Probe #31; AKR1C3: 5′-[…] (SEQ ID NO:19), 5′-[…] (SEQ ID NO:20), Probe #78; CYSLTR2: 5′-[…] (SEQ ID NO:21), 5′-[…] (SEQ ID NO:22), Probe #18; DPEP1: 5′-gacgtcctgaggctggtg (SEQ ID NO:23), 5′-[…] (SEQ ID NO:24), Probe #9 (SEQ ID NO:25), ELOVL2: 5′-[…] (SEQ ID NO:26), 5′-[…] (SEQ ID NO:27), Probe #53; ELOVL4: 5′-catttggcccatggattc (SEQ ID NO:28), 5′-[…] (SEQ ID NO:29), Probe #31; ELOVL5: 5′-cccttccatgcgtccata (SEQ ID NO:30), 5′-[…] (SEQ ID NO:31), Probe #31; EPHX2: 5′-ttctgctggacaccctgaa (SEQ ID NO:32), 5′-[…] (SEQ ID NO:33), Probe #45; GPX4: 5′-ttcccgtgtaaccagttcg (SEQ ID NO:34), 5′-[…] (SEQ ID NO:35), Probe #36; LTA4H: 5′-ctgctctcacggtccagtc (SEQ ID NO:36), 5′-[…] (SEQ ID NO:37), Probe #64; LTBR2: 5′-[…] (SEQ ID NO:38), 5′-[…] (SEQ ID NO:39), Probe #33; LTC4S: 5′-[…] (SEQ ID NO:40), 5′-[…] (SEQ ID NO:41), Probe #18; PTGDS: 5′-[…] (SEQ ID NO:42), 5′-[…] (SEQ ID NO:43), Probe #36; PTGES: 5′-agagatgcctgcccacag (SEQ ID NO:44), 5′-tggccaccacgtacatctt (SEQ ID NO:45), Probe #4; PTGES2: 5′-[…] (SEQ ID NO:46), 5′-[…] (SEQ ID NO:47), Probe #49; PTGES3 (SEQ ID NO:48), 5′-[…] (SEQ ID NO:49), 5′-[…] (SEQ ID NO:50), Probe #48; PTGIS: 5′-[…] (SEQ ID NO:51), 5′-[…] (SEQ ID NO:52), Probe #45; PTGR1: 5′-atgatggggcagcaagtg (SEQ ID NO:53), 5′-cccatcagaaatggagtgc (SEQ ID NO:54), Probe #64; PTGS1: 5′-[…] (SEQ ID NO:55), 5′-gtggtggtccatgttcctg (SEQ ID NO:56), Probe #81; PTGS2: 5′-gatccccagggctcaaac (SEQ ID NO:57), 5′-[…] (SEQ ID NO:58), Probe #61; TBXAS1: 5′-[…] (SEQ ID NO:59), 5′-tgcctcccgtgtgaatct (SEQ ID NO:60), Probe #73; AREG: 5′-[…] (SEQ ID NO:61), 5′-[…] (SEQ ID NO:62), Probe #73; CCL2: 5′-AGTCTCTGCCGCCCTTCT (SEQ ID NO:63), 5′-GTGACTGGGGCATTGATTG (SEQ ID NO:64), Probe #40; CCL27: 5′-[…] (SEQ ID NO:65), 5′-gctgggtggcagtaggaat (SEQ ID NO:66), Probe #18; CXCL1: 5′-[…] (SEQ ID NO:67), 5′-[…] (SEQ ID NO:68), Probe #52; HGF: 5′-[…] (SEQ ID NO:69), 5′-[…] (SEQ ID NO:70), Probe #49; ILIA: 5′-[…] (SEQ ID NO:71), 5′-[…] (SEQ ID NO:72), Probe #6; IL1B: 5′-[…] (SEQ ID NO:73), 5′-[…] (SEQ ID NO:74), Probe #78; IL6: 5′-[…] (SEQ ID NO:75), 5′-gaaggcagcaggcaacac (SEQ ID NO:76), Probe #45; IL8: 5′-[…] (SEQ ID NO:77), 5′-atggttccttccggtggt (SEQ ID NO:78), Probe #72; IL10: 5′-[…] (SEQ ID NO:79), 5′-[…] (SEQ ID NO:80), Probe #67; MMP3: 5′-[…] (SEQ ID NO:81), 5′-[…] (SEQ ID NO:82), Probe #36; PDGFA: 5′-[…] (SEQ ID NO:83), 5′-[…] (SEQ ID NO:84), Probe #80; VEGF: 5′-[…] (SEQ ID NO:85), 5′-[…] (SEQ ID NO:86), Probe #50; P21WAF1(CDKN1A): 5′-[…]

SASP factors = experiment: qPCR of SASP and PTGS mRNAs in non-senescent cells treated with eicosanoids; conditions: 10 μM
Procedure: RNA was extracted from cells or tissues using commercially available kits (Isolate II—Bioline for cells; Direct-zol—Zymo for tissues) according to the manufacturer's instructions. cDNA synthesis was performed using a High Capacity cDNA Reverse Transcription Kit (Thermo Fisher) according to the manufacturer's instructions. Quantitative PCR was performed on a LightCycler 480 II (Roche) using primers and probes designed for the Universal Probe Library. Primers and probes used for human transcripts were ACTB: 5′-CCAACCGCGAGAAGATGA (SEQ ID NO:1), 5′-TCCATCACGATGCCAGTG (SEQ ID NO:2), Probe #64; TUBA: 5′-cttcgtctccgccatcag (SEQ ID NO:3), 5′-ttgccaatctggacacca (SEQ ID NO:4), Probe #58; ALOX5: 5′-[…] (SEQ ID NO:5), 5′-[…] (SEQ ID NO:6), Probe #64; ALOX5AP: 5′-ggtctgcggggctacttt (SEQ ID NO:7), 5′-[…] (SEQ ID NO:8), Probe #18; ALOX12: 5′-[…] (SEQ ID NO:9), 5′-agccaggtcgtcaggag (SEQ ID NO:10), Probe #32; ALOX15: 5′-[…] (SEQ ID NO:11), 5′-[…] (SEQ ID NO:12), Probe #76; ALOX15B: 5′-[…] (SEQ ID NO:13), 5′-actgggaggcgaagaagg (SEQ ID NO:14), Probe #51; AKR1C1: 5′-catgcctgtcctgggattt (SEQ ID NO:15), 5′-[…] (SEQ ID NO:16), Probe #49; AKR1C2: 5′-ctatgcgcctgcagaggt (SEQ ID NO:17), 5′-[…] (SEQ ID NO:18), Probe #31; AKR1C3: 5′-[…] (SEQ ID NO:19), 5′-[…] (SEQ ID NO:20), Probe #78; CYSLTR2: 5′-[…] (SEQ ID NO:21), 5′-[…] (SEQ ID NO:22), Probe #18; DPEP1: 5′-gacgtcctgaggctggtg (SEQ ID NO:23), 5′-[…] (SEQ ID NO:24), Probe #9 (SEQ ID NO:25), ELOVL2: 5′-[…] (SEQ ID NO:26), 5′-[…] (SEQ ID NO:27), Probe #53; ELOVL4: 5′-catttggcccatggattc (SEQ ID NO:28), 5′-[…] (SEQ ID NO:29), Probe #31; ELOVL5: 5′-cccttccatgcgtccata (SEQ ID NO:30), 5′-[…] (SEQ ID NO:31), Probe #31; EPHX2: 5′-ttctgctggacaccctgaa (SEQ ID NO:32), 5′-[…] (SEQ ID NO:33), Probe #45; GPX4: 5′-ttcccgtgtaaccagttcg (SEQ ID NO:34), 5′-[…] (SEQ ID NO:35), Probe #36; LTA4H: 5′-ctgctctcacggtccagtc (SEQ ID NO:36), 5′-[…] (SEQ ID NO:37), Probe #64; LTBR2: 5′-[…] (SEQ ID NO:38), 5′-[…] (SEQ ID NO:39), Probe #33; LTC4S: 5′-[…] (SEQ ID NO:40), 5′-[…] (SEQ ID NO:41), Probe #18; PTGDS: 5′-[…] (SEQ ID NO:42), 5′-[…] […]

[1] = tested on: IMR-90 fibroblasts depleted of p53 by shRNA; experiment: Prostaglandin treatment of p53-depleted (shp53) IMR-90 fibroblasts (Ki67, cleaved caspase 3); conditions: shp53 cells, 3 days
Procedure: For EdU labeling, cells were cultured with EdU (10 μM) for 24 h, fixed in 4% buffered formalin for 10 min, washed in PBS, and permeabilized in 0.5% Triton X-100 for 30 min. Cells were treated as instructed by the manufacturer Life Technologies Cat #C10337). For immunofluorescence, cells were blocked in 10% normal goat serum for 30 min, washed, and incubated overnight in antibodies to Ki67 (Abcam) or cleaved caspase 3 (Cell Signaling). Cell were then washed, incubated in fluorescent secondary antibodies, and mounted using vectashield mounting medium with DAPI.

IL-6 secretion = experiment: IL-6 ELISA on non-senescent cells treated with prostaglandins; conditions: 10 μM, 10 days
Procedure: Human fetal lung fibroblasts (IMR-90) were cultured in Dulbecco's modified eagle medium (DMEM) supplemented with 10% FBS and penicillin/streptomycin. LL 29 (AnHa) cells were obtained from the ATCC and growth to confluence using the ATCC protocol, but were subcultured as described for IMR-90 before initiation of all experiments. Quiescence was induced by replacing culture media with media containing 0.2% FBS. MCF-7 and MDA-MB-231 breast cancer cells were cultured in RPMI supplemented with 10% FBS and penicillin/streptomycin. All cells were cultured at 3% O2, and used between 25 and 40 population doublings. All cells were mycoplasma free.
3×10^4 cells in 12-well plates were treated as indicated in the text, and cultured in 0.5-1 ml serum-free DMEM for 24 hr. CM were collected and clarified at 2,000×g for 10 min. Supernatants were transferred to a tube; cells were trypsinized and counted. CM (2.5 μl) were analyzed by bead-based ELISAs (AlphaLISA, Perkin-Elmer) as instructed by the manufacturer and normalized to cell number.

SMILES | levels of LMNB1 and cellular HMGB1 (IMR-90 fibroblasts; 10 μM, 10 days) | p21 gene expression (IMR-90 fibroblasts; 10 μM, 10 days) | senescence-associated beta-galactosidase (IMR-90 fibroblasts; 10 μM, 10 days) | p21 protein accumulation (IMR-90 fibroblasts; 10 μM, 10 days, immunoblot) | p53 stabilization (IMR-90 fibroblasts; 10 μM, 10 days, immunoblot) | p53 phosphorylation or acetylation (IMR-90 fibroblasts; 10 μM, 10 days, western blot) | expression of MMP3 and secretion of IL-6 on removal of the prostaglandin (IMR-90 fibroblasts; release after 7 days at 10 μM) | SASP factor mRNAs (SASP factors; for PGJ2 and 15d-PGJ2 most factors except VEGF and PDGF) | apoptosis (positivity for cleaved caspase 3) [1] | continued cell division (Ki67 positivity) after loss of p53 [1] | IL-6 secretion (IL-6 secretion) | cell size and proliferation once prostaglandin was removed (IMR-90 fibroblasts; 10 μM 7 days, then 10 days release) | PTGES mRNA (SASP factors)
CCCCC[C@H](O)/C=C/[C@H]1C(=O)C=C[C@@H]1C/C=C\CCCC(=O)O [PGJ2] | reduced levels | induced | induced | induced | stabilized | without increasing | reduced | strongly induced | underwent apoptosis | did not allow | highest induction | – | –
CCCCC[C@H](O)/C=C/[C@H]1[C@H](O)CC(=O)[C@@H]1C/C=C\CCCC(=O)O [PGE2, prostaglandin E2] | – | – | induced | – | – | – | – | – | – | – | – | became smaller and resumed proliferation | elevated
